Values quoted from earlier work, collected in patent publication US20250312272A1, “PHARMACEUTICAL FORMULATIONS FOR ORAL ADMINISTRATION AND METHODS OF MAKING AND USING THE SAME” (Aaryen Pharma LLC, priority 2024, published 2025).
Counter-ions that a name gives are not always drawn.

Row | Structure (SMILES) | solubility in water | solubility (descriptive term of Table 1) (in water)
1 | COc1ccc2c(c1)[C@]13CCCC[C@@H]1[C@H](C2)N(C)CC3 [dextromethorphan hydrobromide] | water soluble | 
2 | COc1ccccc1OCC(O)CO (centres unmarked) [guaifenesin] |  | sparingly soluble
